Assay type in all cases: functional
Assay [1] relates to Staphylococcus aureus. In words: Antibacterial activity against methicillin-resistant Staphylococcus aureus ATCC43300 assessed as inhibition of bacterial growth incubated for 20 hrs by CLSI protocol based microdilution method.
For assay [2], the system named is Escherichia coli. The assay is described as follows: Antibacterial activity against penicillin-susceptible Escherichia coli ATCC25922 assessed as inhibition of bacterial growth incubated for 20 hrs by CLSI protocol based microdilution method. For orientation: Broth dilution looks for growth in wells or tubes with falling amounts of substance.
Assay [3] deals with Pseudomonas aeruginosa. The assay is described as follows: Antibacterial activity against penicillin-susceptible Pseudomonas aeruginosa ATCC27853 assessed as inhibition of bacterial growth incubated for 20 hrs by CLSI protocol based microdilution method.
The test system of assay [4] is Staphylococcus aureus. The assay is described as follows: Antibacterial activity against erthromycin-susceptible Staphylococcus aureus ATCC25923 assessed as inhibition of bacterial growth incubated for 20 hrs by CLSI protocol based microdilution method.
In assay [5] the test system is Bacillus subtilis. In words: Antibacterial activity against penicillin-susceptible Bacillus subtilis ATCC9372 assessed as inhibition of bacterial growth incubated for 20 hrs by CLSI protocol based microdilution method.
In assay [6] the test system is Bacillus pumilus. In words: Antibacterial activity against penicillin-susceptible Bacillus pumilus CMCC63202 assessed as inhibition of bacterial growth incubated for 20 hrs by CLSI protocol based microdilution method.
Assay [7] has as its system Pseudomonas aeruginosa. The assay is described as follows: Antibacterial activity against wild type Pseudomonas aeruginosa […] CGMCC1.12483 assessed as inhibition of bacterial growth incubated for 20 hrs by CLSI protocol based microdilution method.

The results in this text go back to ChEMBL document CHEMBL5331108, “Design and Synthesis of 4-Fluorophenyl-5-methylene-2(5H)-furanone Derivatives as Potent Quorum Sensing Inhibitors” (J Med Chem, 2023).

Molecules are shown by their SMILES. Values after ≈ are worked out from the molar mass of the structure shown.

As for `C=C1OC(=O)C(CNC(=O)c2ccc(C)cc2)=C1c1cccc(F)c1`, the MIC in assay [1], in assay [2], in assay [3], in assay [4], in assay [5] and in assay [6] was greater than 512 µg/mL throughout. Besides, in assay [7], the MIC was greater than 512 µg/mL.

With `C=C1OC(=O)C(CNC(=O)c2ccc(C)cc2)=C1c1ccc(Br)cc1`, the MIC in assay [1], in assay [2], in assay [3], in assay [4], in assay [5] and in assay [6] was greater than 512 µg/mL throughout. The MIC in assay [7] is greater than 512 µg/mL.

As to `C=C1OC(=O)C(CNC(=O)c2ccc(C)cc2)=C1c1ccc(Cl)cc1`, the MIC in assay [1], in assay [2], in assay [3], in assay [4], in assay [5] and in assay [6] was greater than 512 µg/mL throughout. Besides, the MIC in assay [7] was greater than 512 µg/mL.

`C=C1OC(=O)C(CNC(=O)c2ccccc2OC)=C1c1ccc(F)cc1`: the MIC in assay [1], in assay [2], in assay [3], in assay [4], in assay [5] and in assay [6] was greater than 512 µg/mL in each case. The MIC in assay [7] was greater than 512 µg/mL.

`C=C1C(c2ccc(F)cc2)=C(CNC(=O)c2ccc(C)cc2)C(=O)N1CCCC`: the MIC in assay [1], in assay [2], in assay [3], in assay [4], in assay [5] and in assay [6] was greater than 512 µg/mL each time. The MIC in assay [7] was greater than 512 µg/mL.

With `C=C1OC(=O)C(CNC(=O)c2ccc(C)cc2)=C1c1cccc(Br)c1`, the MIC in assay [1], in assay [2], in assay [3], in assay [4], in assay [5] and in assay [6] was greater than 512 µg/mL in each case. In addition, in assay [7], the MIC was greater than 512 µg/mL.

In the case of `C=C1OC(=O)C(CNC(=O)c2ccccc2F)=C1c1ccc(F)cc1`, the MIC in assay [1] was 128 µg/mL (≈ 375 µM); in assay [2] it was greater than 512 µg/mL; in assay [3], greater than 512 µg/mL; in assay [4], greater than 512 µg/mL; in assay [5], greater than 512 µg/mL; in assay [6] it was greater than 512 µg/mL. Also, the MIC in assay [7] was greater than 512 µg/mL.

On to `C=C1OC(=O)C(CNC(=O)c2ccc(C)cc2)=C1c1ccccc1F`, for which the MIC in assay [1], in assay [2], in assay [3], in assay [4], in assay [5] and in assay [6] was greater than 512 µg/mL in each case. The MIC in assay [7] was greater than 512 µg/mL.

On to `C=C1OC(=O)C(CNC(=O)c2cccc(Br)c2)=C1c1ccc(F)cc1`, for which the MIC in assay [1], in assay [2], in assay [3], in assay [4], in assay [5] and in assay [6] was greater than 512 µg/mL throughout. In addition, the MIC in assay [7] was greater than 512 µg/mL.

As for `C=C1OC(=O)C(CNC(=O)CCCCCCCCC)=C1c1ccc(F)cc1`, the MIC was 512 µg/mL (≈ 1370 µM) in assay [1]; greater than 512 µg/mL in assay [2]; greater than 512 µg/mL in assay [3]; greater than 512 µg/mL in assay [4]; greater than 512 µg/mL in assay [5]; greater than 512 µg/mL in assay [6]. The MIC in assay [7] was greater than 512 µg/mL.

For `C=C1OC(=O)C(CNC(=O)c2ccc(C)cc2)=C1c1ccccc1Br`, the MIC in assay [1], in assay [2], in assay [3], in assay [4], in assay [5] and in assay [6] was greater than 512 µg/mL each time. The MIC in assay [7] was greater than 512 µg/mL.

In the case of `C=C1OC(=O)C(CNC(=O)c2ccc(C)cc2)=C1c1ccc(-c2ccccc2)cc1`, the MIC in assay [1], in assay [2], in assay [3], in assay [4], in assay [5] and in assay [6] was greater than 512 µg/mL throughout. In assay [7], the MIC was greater than 512 µg/mL.

Consider `C=C1C(c2ccc(F)cc2)=C(CNC(=O)c2ccc(C)cc2)C(=O)N1CC`, for which the minimum inhibitory concentration (MIC) in assay [1] is greater than 512 µg/mL; in assay [2], greater than 512 µg/mL; in assay [3], 64 µg/mL (≈ 176 µM); in assay [4], greater than 512 µg/mL; in assay [5] it was greater than 512 µg/mL; in assay [6], 512 µg/mL (≈ 1400 µM). For the same compound, the minimum inhibitory concentration (MIC) in assay [7] amounted to 512 µg/mL (≈ 1400 µM).

In the case of `C=C1OC(=O)C(CNC(=O)CCCCC)=C1c1ccc(F)cc1`, the minimal inhibitory concentration (MIC) in assay [1] was 256 µg/mL (≈ 807 µM); in assay [2] it was greater than 512 µg/mL; in assay [3], greater than 512 µg/mL; in assay [4], 16 µg/mL (≈ 50.4 µM); in assay [5], 256 µg/mL (≈ 807 µM); in assay [6] it was 256 µg/mL (≈ 807 µM). The minimum inhibitory concentration (MIC) in assay [7] is greater than 512 µg/mL.

For the compound `C=C1C(c2ccc(F)cc2)=C(CNC(=O)c2ccc(C)cc2)C(=O)N1c1ccccc1Cl`, the MIC in assay [1] is greater than 512 µg/mL; in assay [2], greater than 512 µg/mL; in assay [3], greater than 512 µg/mL; in assay [4] it was greater than 512 µg/mL; in assay [5] it was greater than 512 µg/mL; in assay [6] it was 512 µg/mL (≈ 1150 µM). Further, in assay [7], the MIC amounted to 512 µg/mL (≈ 1150 µM).

Consider `C=C1C(c2ccc(F)cc2)=C(CNC(=O)c2ccc(C)cc2)C(=O)N1CCCCC`, for which the minimum inhibitory concentration (MIC) in assay [1] is greater than 512 µg/mL; in assay [2], greater than 512 µg/mL; in assay [3], greater than 512 µg/mL; in assay [4], greater than 512 µg/mL; in assay [5], greater than 512 µg/mL; in assay [6], 512 µg/mL (≈ 1260 µM). For the same compound, the MIC in assay [7] came to 512 µg/mL (≈ 1260 µM).

With `C=C1OC(=O)C(CNC(=O)c2ccccc2C)=C1c1ccc(F)cc1`, the MIC in assay [1] was 64 µg/mL (≈ 190 µM); in assay [2], greater than 512 µg/mL; in assay [3], greater than 512 µg/mL; in assay [4] it was 32 µg/mL (≈ 94.9 µM); in assay [5], 128 µg/mL (≈ 379 µM); in assay [6], 32 µg/mL (≈ 94.9 µM). For the same compound, in assay [7], the MIC was greater than 512 µg/mL.

`C=C1OC(=O)C(CNC(=O)c2ccc(C)cc2)=C1c1ccccc1Cl`: the MIC in assay [1], in assay [2], in assay [3], in assay [4], in assay [5] and in assay [6] was greater than 512 µg/mL in each case. Also, the MIC in assay [7] is greater than 512 µg/mL.

As to `C=C1OC(=O)C(CNC(=O)c2cccc(F)c2)=C1c1ccc(F)cc1`, the MIC in assay [1], in assay [2], in assay [3], in assay [4], in assay [5] and in assay [6] was greater than 512 µg/mL each time. For the same compound, the MIC in assay [7] was greater than 512 µg/mL.

Regarding `C=C1C(c2ccc(F)cc2)=C(CNC(=O)c2ccc(C)cc2)C(=O)N1c1cccc(Cl)c1`, the MIC is greater than 512 µg/mL in assay [1]; greater than 512 µg/mL in assay [2]; greater than 512 µg/mL in assay [3]; greater than 512 µg/mL in assay [4]; greater than 512 µg/mL in assay [5]; 512 µg/mL (≈ 1150 µM) in assay [6]. Also, the MIC in assay [7] came out at 512 µg/mL (≈ 1150 µM).

Regarding `C=C1OC(=O)C(CNC(=O)c2ccc(C)cc2)=C1c1cccc(C(F)(F)F)c1`, the MIC in assay [1], in assay [2], in assay [3], in assay [4], in assay [5] and in assay [6] was greater than 512 µg/mL each time. The MIC in assay [7] is greater than 512 µg/mL.

In the case of `C=C1OC(=O)C(CNC(=O)CC)=C1c1ccc(F)cc1`, the MIC in assay [1] was 256 µg/mL (≈ 930 µM); in assay [2], greater than 512 µg/mL; in assay [3], greater than 512 µg/mL; in assay [4], 128 µg/mL (≈ 465 µM); in assay [5], 512 µg/mL (≈ 1860 µM); in assay [6], 256 µg/mL (≈ 930 µM). The MIC in assay [7] is 512 µg/mL (≈ 1860 µM).

Consider `C=C1OC(=O)C(CNC(=O)CCCCCCCC)=C1c1ccc(F)cc1`, for which the minimum inhibitory concentration (MIC) in assay [1], in assay [2], in assay [3], in assay [4], in assay [5] and in assay [6] was greater than 512 µg/mL each time. The minimum inhibitory concentration (MIC) in assay [7] was greater than 512 µg/mL.

On to `C=C1OC(=O)C(CNC(=O)c2ccccc2Cl)=C1c1ccc(F)cc1`, for which the MIC in assay [1], in assay [2], in assay [3], in assay [4], in assay [5] and in assay [6] was greater than 512 µg/mL throughout. Further, the MIC in assay [7] is greater than 512 µg/mL.

As for `C=C1OC(=O)C(CNC(=O)c2ccccc2Br)=C1c1ccc(F)cc1`, the MIC in assay [1] is 8 µg/mL (≈ 19.9 µM); in assay [2], greater than 512 µg/mL; in assay [3], greater than 512 µg/mL; in assay [4] it was greater than 512 µg/mL; in assay [5] it was 16 µg/mL (≈ 39.8 µM); in assay [6], greater than 512 µg/mL. Further, the MIC in assay [7] is greater than 512 µg/mL.

`C=C1OC(=O)C(CNC(=O)CCCC)=C1c1ccc(F)cc1`: the MIC is 32 µg/mL (≈ 105 µM) in assay [1]; greater than 512 µg/mL in assay [2]; greater than 512 µg/mL in assay [3]; 4 µg/mL (≈ 13.2 µM) in assay [4]; 32 µg/mL (≈ 105 µM) in assay [5]; 16 µg/mL (≈ 52.7 µM) in assay [6]. In assay [7], the MIC was greater than 512 µg/mL.

As to `C=C1OC(=O)C(CNC(=O)CCCCCCC)=C1c1ccc(F)cc1`, the MIC in assay [1], in assay [2], in assay [3], in assay [4], in assay [5] and in assay [6] was greater than 512 µg/mL throughout. Also, the MIC in assay [7] was greater than 512 µg/mL.

As to `C=C1OC(=O)C(CNC(=O)c2ccc(C)cc2)=C1c1ccccc1`, the minimal inhibitory concentration (MIC) in assay [1], in assay [2], in assay [3], in assay [4], in assay [5] and in assay [6] was greater than 512 µg/mL in each case. In addition, the MIC in assay [7] was greater than 512 µg/mL.

Regarding `C=C1C(c2ccc(F)cc2)=C(CNC(=O)c2ccc(C)cc2)C(=O)N1CCC`, the MIC is greater than 512 µg/mL in assay [1]; greater than 512 µg/mL in assay [2]; 256 µg/mL (≈ 676 µM) in assay [3]; greater than 512 µg/mL in assay [4]; greater than 512 µg/mL in assay [5]; 512 µg/mL (≈ 1350 µM) in assay [6]. The MIC in assay [7] was 512 µg/mL (≈ 1350 µM).

The MIC is the least concentration at which growth counts as inhibited.
